For 25 molecules, Ki results are on record in patent US12247032B2, “Substituted pyrazolo[1,5-a]pyrimidines as inhibitors of JAK kinases” (Genentech, Inc., priority 2019, dated 2025).

For the experiment, the target named is T1, recombinant human JAK1 kinase domain protein (Residues 854-1154) (Homo sapiens, UniProt P23458).
T1 construct: human JAK1 kinase domain protein (Residues 854-1154); purchased Proteros Biostructures GmbH (Martinsried, Germany); host or cells: insect cells
Briefly: JAK1 biochemical assay (microfluidic mobility shift, peptide phosphorylation). Particulars: 25 μM ATP, 1 nM total JAK1; Ki calculated from Ki app (tight-binding, competitive); read-out: Biochem JAK1 Ki. Summed up: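 Insect-cell-expressed human JAK1 (1 nM, residues 854-1154) or JAK2 (0.2 nM, residues 812-1132) phosphorylating 1.5 μM 5-FAM peptide Y-1B with 25 μM ATP, pH 7.2 HEPES, 30 min at 22-23 °C; twelve concentrations up to 1000 nM in duplicate. Mobility-shift % conversion fitted to tight-binding quadratic for Ki^app.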

Structures are written as SMILES.

T1 sequence (P23458 854-1154): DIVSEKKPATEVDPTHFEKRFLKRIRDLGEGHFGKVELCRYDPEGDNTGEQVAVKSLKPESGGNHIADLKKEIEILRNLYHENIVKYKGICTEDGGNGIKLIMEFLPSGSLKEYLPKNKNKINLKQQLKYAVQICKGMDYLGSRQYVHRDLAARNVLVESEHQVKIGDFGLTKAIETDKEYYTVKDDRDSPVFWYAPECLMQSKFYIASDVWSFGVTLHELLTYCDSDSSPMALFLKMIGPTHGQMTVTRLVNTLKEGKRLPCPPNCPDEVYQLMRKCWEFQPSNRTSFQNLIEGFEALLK

`O=C(Nc1cn(Cc2nnn(C3CCNC3)n2)nc1-c1cc(OC(F)F)ccc1OC(F)F)c1cnn2cccnc12` (single isomer, unassigned) [Example 27, N-[3-[2,5-bis(difluoromethoxy)phenyl]-1-[(2-pyrrolidin-3-yltetrazol-5-yl)methyl]pyrazol-4-yl]pyrazolo[1,5-a]pyrimidine-3-carboxamide]: the Ki was 0.35 nM. The value for `O=C(Nc1cn(Cc2nnn(C3CCNC3)n2)nc1-c1cc(OC(F)F)ccc1OC(F)F)c1cnn2cccnc12` (single isomer, unassigned) [Example 28, N-[3-[2,5-bis(difluoromethoxy)phenyl]-1-[(2-pyrrolidin-3-yltetrazol-5-yl)methyl]pyrazol-4-yl]pyrazolo[1,5-a]pyrimidine-3-carboxamide] was 0.3 nM; that for `CN1CCC(N2CC(n3nnc(Cn4cc(NC(=O)c5cnn6cccnc56)c(-c5cc(OC(F)F)ccc5OC(F)F)n4)n3)C2)C1` (single isomer, unassigned) [Example 72, N-[3-[2,5-bis(difluoromethoxy)phenyl]-1-[[2-[1-(1-methylpyrrolidin-3-yl)azetidin-3-yl]tetrazol-5-yl]methyl]pyrazol-4-yl]pyrazolo[1,5-a]pyrimidine-3-carboxamide] was 0.61 nM. For `CN1CC(n2nnc(Cn3cc(NC(=O)c4cnn5cccnc45)c(-c4cc(Cl)ccc4OC(F)F)n3)n2)C1` [Example 7, N-[3-[5-chloro-2-(difluoromethoxy)phenyl]-1-[[2-(1-methylazetidin-3-yl)tetrazol-5-yl]methyl]pyrazol-4-yl]pyrazolo[1,5-a]pyrimidine-3-carboxamide] the value was 0.42 nM; for `O=C(Nc1cn(Cc2nnn(C3CNC3)n2)nc1-c1cc(Cl)ccc1OC(F)F)c1cnn2cccnc12` [Example 8, N-[1-[[2-(azetidin-3-yl)tetrazol-5-yl]methyl]-3-[5-chloro-2-(difluoromethoxy)phenyl]pyrazol-4-yl]pyrazolo[1,5-a]pyrimidine-3-carboxamide], 0.5 nM; for `CN1CC(n2nnc(Cn3cc(NC(=O)c4cnn5cccnc45)c(-c4cc(OC(F)F)ccc4OC(F)F)n3)n2)C1` [Example 10, N-[3-[2,5-bis(difluoromethoxy)phenyl]-1-[[2-(1-methylazetidin-3-yl)tetrazol-5-yl]methyl]pyrazol-4-yl]pyrazolo[1,5-a]pyrimidine-3-carboxamide], 0.33 nM.

For the molecule `O=C(Nc1cn(Cc2nnn(C3CNC3)n2)nc1-c1cc(OC(F)F)ccc1OC(F)F)c1cnn2cccnc12` [Example 11, N-[1-[[2-(azetidin-3-yl)tetrazol-5-yl]methyl]-3-[2,5-bis(difluoromethoxy)phenyl]pyrazol-4-yl]pyrazolo[1,5-a]pyrimidine-3-carboxamide], the Ki was 0.39 nM. For `O=C(Nc1cn(Cc2nnnn2C2CNC2)nc1-c1cc(OC(F)F)ccc1OC(F)F)c1cnn2cccnc12` [Example 12, N-[1-[[1-(azetidin-3-yl)tetrazol-5-yl]methyl]-3-[2,5-bis(difluoromethoxy)phenyl]pyrazol-4-yl]pyrazolo[1,5-a]pyrimidine-3-carboxamide] the value was 0.21 nM; for `NCCn1nnc(Cn2cc(NC(=O)c3cnn4cccnc34)c(-c3cc(OC(F)F)ccc3OC(F)F)n2)n1` [Example 13, N-[1-[[2-(2-aminoethyl)tetrazol-5-yl]methyl]-3-[2,5-bis(difluoromethoxy)phenyl]pyrazol-4-yl]pyrazolo[1,5-a]pyrimidine-3-carboxamide], 0.25 nM. With `NCCn1nnnc1Cn1cc(NC(=O)c2cnn3cccnc23)c(-c2cc(OC(F)F)ccc2OC(F)F)n1` [Example 14, N-[1-[[1-(2-aminoethyl)tetrazol-5-yl]methyl]-3-[2,5-bis(difluoromethoxy)phenyl]pyrazol-4-yl]pyrazolo[1,5-a]pyrimidine-3-carboxamide], the Ki is 0.26 nM. For `CN1CC(n2nnnc2Cn2cc(NC(=O)c3cnn4cccnc34)c(-c3cc(Cl)ccc3OC(F)F)n2)C1` [Example 15, N-[3-[5-chloro-2-(difluoromethoxy)phenyl]-1-[[1-(1-methylazetidin-3-yl)tetrazol-5-yl]methyl]pyrazol-4-yl]pyrazolo[1,5-a]pyrimidine-3-carboxamide] the value was 0.22 nM; for `CN(C)CCn1nnc(Cn2cc(NC(=O)c3cnn4cccnc34)c(-c3cc(OC(F)F)ccc3OC(F)F)n2)n1` [Example 16, N-[3-[2,5-bis(difluoromethoxy)phenyl]-1-[[2-[2-(dimethylamino)ethyl]tetrazol-5-yl]methyl]pyrazol-4-yl]pyrazolo[1,5-a]pyrimidine-3-carboxamide], 0.45 nM. Consider `CN(C)CCn1nnnc1Cn1cc(NC(=O)c2cnn3cccnc23)c(-c2cc(OC(F)F)ccc2OC(F)F)n1` [Example 17, N-[3-[2,5-bis(difluoromethoxy)phenyl]-1-[[1-[2-(dimethylamino)ethyl]tetrazol-5-yl]methyl]pyrazol-4-yl]pyrazolo[1,5-a]pyrimidine-3-carboxamide], for which the Ki was 0.43 nM. Regarding `O=C(Nc1cn(Cc2nnn(C3CCNCC3)n2)nc1-c1cc(OC(F)F)ccc1OC(F)F)c1cnn2cccnc12` [Example 18, N-[3-[2,5-bis(difluoromethoxy)phenyl]-1-[[2-(4-piperidyl)tetrazol-5-yl]methyl]pyrazol-4-yl]pyrazolo[1,5-a]pyrimidine-3-carboxamide], the Ki was 0.51 nM. The value for `CNCCn1nnnc1Cn1cc(NC(=O)c2cnn3cccnc23)c(-c2cc(OC(F)F)ccc2OC(F)F)n1` [Example 19, N-[3-[2,5-bis(difluoromethoxy)phenyl]-1-[[1-[2-(methylamino)ethyl]tetrazol-5-yl]methyl]pyrazol-4-yl]pyrazolo[1,5-a]pyrimidine-3-carboxamide] was 0.22 nM; that for `CNCCn1nnc(Cn2cc(NC(=O)c3cnn4cccnc34)c(-c3cc(OC(F)F)ccc3OC(F)F)n2)n1` [Example 20, N-[3-[2,5-bis(difluoromethoxy)phenyl]-1-[[2-[2-(methylamino)ethyl]tetrazol-5-yl]methyl]pyrazol-4-yl]pyrazolo[1,5-a]pyrimidine-3-carboxamide] was 0.57 nM; that for `CN(C)CCN1CC(n2nnc(Cn3cc(NC(=O)c4cnn5cccnc45)c(-c4cc(OC(F)F)ccc4OC(F)F)n3)n2)C1` [Example 21, N-[3-[2,5-bis(difluoromethoxy)phenyl]-1-[[2-[1-[2-(dimethylamino)ethyl]azetidin-3-yl]tetrazol-5-yl]methyl]pyrazol-4-yl]pyrazolo[1,5-a]pyrimidine-3-carboxamide] was 0.4 nM. `CN1CCC(n2nnc(Cn3cc(NC(=O)c4cnn5cccnc45)c(-c4cc(OC(F)F)ccc4OC(F)F)n3)n2)CC1` [Example 22]: the Ki is 0.44 nM. For `CN1CC(n2nnc(Cn3cc(NC(=O)c4cnn5cccnc45)c(-c4cc(C5CC5)ccc4OC(F)F)n3)n2)C1` [Example 23, N-[3-[5-cyclopropyl-2-(difluoromethoxy)phenyl]-1-[[2-(1-methylazetidin-3-yl)tetrazol-5-yl]methyl]pyrazol-4-yl]pyrazolo[1,5-a]pyrimidine-3-carboxamide] the value was 0.42 nM. In the case of `CN1CCC(n2nnnc2Cn2cc(NC(=O)c3cnn4cccnc34)c(-c3cc(OC(F)F)ccc3OC(F)F)n2)C1` (stereo not shown) [Example 26, N-[3-[2,5-bis(difluoromethoxy)phenyl]-1-[[1-(1-methylpyrrolidin-3-yl)tetrazol-5-yl]methyl]pyrazol-4-yl]pyrazolo[1,5-a]pyrimidine-3-carboxamide], the Ki is 0.51 nM. For `CN(CCN1CC(n2nnc(Cn3cc(NC(=O)c4cnn5cccnc45)c(-c4cc(OC(F)F)ccc4OC(F)F)n3)n2)C1)C(=O)OC(C)(C)C` [Example 31, tert-butyl N-[2-[3-[5-[[3-[2,5-bis(difluoromethoxy)phenyl]-4-(pyrazolo[1,5-a]pyrimidine-3-carbonylamino)pyrazol-1-yl]methyl]tetrazol-2-yl]azetidin-1-yl]ethyl]-N-methyl-carbamate] the value was 0.34 nM. The value for `CN(C)CCN1CC(n2nnc(Cn3cc(NC(=O)c4cnn5cccnc45)c(-c4cc(Cl)ccc4OC(F)F)n3)n2)C1` [Example 37, N-[3-[5-chloro-2-(difluoromethoxy)phenyl]-1-[[2-[1-[2-(dimethylamino)ethyl]azetidin-3-yl]tetrazol-5-yl]methyl]pyrazol-4-yl]pyrazolo[1,5-a]pyrimidine-3-carboxamide] was 0.48 nM; that for `CN1CCC(N2CC(n3nnc(Cn4cc(NC(=O)c5cnn6cccnc56)c(-c5cc(OC(F)F)ccc5OC(F)F)n4)n3)C2)CC1` [Example 38, N-[3-[2,5-bis(difluoromethoxy)phenyl]-1-[[2-[1-(1-methyl-4-piperidyl)azetidin-3-yl]tetrazol-5-yl]methyl]pyrazol-4-yl]pyrazolo[1,5-a]pyrimidine-3-carboxamide] was 0.48 nM. For `CSc1ccc(OC(F)F)c(-c2nn(Cc3nnn(C4CN(CCCN(C)C)C4)n3)cc2NC(=O)c2cnn3cccnc23)c1` [Example 58, N-[3-[2-(difluoromethoxy)-5-methylsulfanyl-phenyl]-1-[[2-[1-[3-(dimethylamino)propyl]azetidin-3-yl]tetrazol-5-yl]methyl]pyrazol-4-yl]pyrazolo[1,5-a]pyrimidine-3-carboxamide] the value was 0.41 nM. As to `CN(C)CCN1CCC(n2nnc(Cn3cc(NC(=O)c4cnn5cccnc45)c(-c4cc(OC(F)F)ccc4OC(F)F)n3)n2)CC1` [Example 61, N-[3-[2,5-bis(difluoromethoxy)phenyl]-1-[[2-[1-[2-(dimethylamino)ethyl]-4-piperidyl]tetrazol-5-yl]methyl]pyrazol-4-yl]pyrazolo[1,5-a]pyrimidine-3-carboxamide], the Ki is 0.63 nM.
